{"source": "patent US11505548B2", "about": "“Heterocyclic compounds and their use for treatment of helminthic infections and diseases” (Celgene Corporation, priority 2019, dated 2022)", "tested_on": "microfilariae of Dirofilaria immitis", "experiment": "Dirofilaria immitis, Microfilaria (DiMF) Assay", "format": "cell-based", "settings": "in vitro, stage (microfilaria or L4) not given, class A/B/C, read-out: D. immitis activity level (IC50 or MED)", "protocol": "Heartworm Screen Dirofilaria immitis (D. immitis)\nDirofilaria immitis, Microfilaria (DiMF) Assay.\nCompounds were dissolved and serially diluted in DMSO. Aliquots were spotted to the empty wells of assay plates. Media and microfilariae of Dirofilaria immitis were added to each well to dilute the test compounds to the desired concentrations. Assay plates were incubated for approximately 72 hours, and the larvae in each well were observed microscopically for drug effect. Microfilariae in each well were assessed subjectively for survival or paralysis, and results were reported as Minimum Effective Dose (MED).\nActive and selective (DiL4 vs. DiMF potency) example compounds were subsequently evaluated in heartworm positive dog studies to correlate the in vitro selectivity profile with in vivo effects on circulating microfilariae.", "data": [{"substance": "2-(3-(5-isoprop- oxypyridin-2- yl)-1,2,4- thiadiazol-5- ylamino)-N,N- dimethyl-5- (trifluoromethyl) nicotinamide [Compound 250]", "values": [{"measurement": "IC50", "value": "< 200", "unit": "nM"}]}]}
